Laboratory results reported in patent US10548313B2, “Acetyl-CoA carboxylase modulators” (Monsanto Technology LLC, priority 2013, dated 2020).
pIC50: −log10 of the molar value. Several values for one entry are separate records, joined by “and”; a condition that tells them apart may be missing. Identical values can stand only once. Like-named read-outs stand apart in the source and are kept apart here.

What was measured:
[1] = molecular target: Ustilago maydis acetyl CoA carboxylase (ACCase) (Mycosarcoma maydis (Ustilago maydis), UniProt A0A0D1DYD5); assay: ACCase enzymatic assay (coupled PK/LDH, NADH OD340); format: biochemical
Experimental: Ustilago maydis acetyl CoA carboxylase (ACCase) was cloned, expressed, and purified as described (Weatherly et al, Biochem. J., 2004) and the test compounds were tested in a 96-well plate format. Primary in vitro screening consisted of obtaining dose response data at 100, 33, 10, and 1 μM inhibitor. Actives in the primary screen were re-tested to establish IC50 values.
Direct detection of the conversion of acetyl CoA to malonyl CoA by ACCase was not feasible, but during this process ATP is converted to ADP which allowed for detection through a standard reaction coupling with ADP recycling to the oxidation of NADH. Thus, ACCase activity was measured via kinetic OD340 measurements of the conversion of NADH to NAD in a coupled reaction involving the conversion of phosphoenolpyruvate (PEP) to lactate.
The complete 200 ul reaction mixture contained 52.5 mM HEPES (pH8), 2.625 mM MgCl2, 1 mM ATP, 0.525 mM DTT, 11 mM NaHCO3, 1% DMSO with or without inhibitor, 1× pyruvate kinase/lactate dehydrogenase (PK/LDH), 0.3 mM NADH, 0.5 mM PEP, and 5 μg ACCase. The reactions were incubated at 30° C. for 10 minutes and then initiated by the addition of 0.33 mM acetyl CoA. The initiated reactions were read immediately via plate reader at OD340 and kinetic readings were acquired every 20 s for 15 minutes while keeping the temperature at 30° C.
A slope of the kinetic curve was determined by using the 2 to 7 minute data which was then calculated as percent inhibition relative to the no inhibitor control.
The primary screens were conducted in duplicate and the IC50's conducted in triplicate. Averages were reported along with standard deviation calculation to generate error bars.
Each plate contained its own controls and consisted of a DMSO only control, 5-fold titration series of soraphen from 2 μM to 3.2 nM, and an ADP coupled reaction control.

Saccharomyces cerevisiae = assay: Yeast growth inhibition assay; format: cell-based; conditions: for inhibition at 3.7 µM: read-out: S. cerevisiae % growth inhibition at 48 hours, 3.7 μM; for inhibition at 11.1 µM: read-out: S. cerevisiae % growth inhibition at 48 hours, 11.1 μM; for inhibition at 33.3 µM: read-out: S. cerevisiae % growth inhibition at 48 hours, 33.3 μM; for inhibition at 100 µM: read-out: S. cerevisiae % growth inhibition at 48 hours, 100 μM
Experimental: Yeast cells (Ade2 strain) were grown in liquid YPD (1% yeast extract, 2% peptone, 2% dextrose) for 16 hours at 30° C. from previously sub-cultured plates of Saccharomyces cerevisiae. The OD600 of the overnight culture was checked via spectrophotometer and diluted to a concentration of 2×10^4 cells/ml.
Chemistry stocks were dissolved in DMSO to a concentration of 10 mM. Chemistry stocks were further diluted in a 96-well stock plate to obtain final concentrations of 100, 33, 10 and 1 μM in 1% DMSO. The final concentrations of the soraphen positive controls were 400, 40, and 3.2 nM. The negative controls on each plate included a background subtraction control containing yeast and 1% DMSO (without chemistry) and a second contamination control containing YPD (with no yeast) and 1% DMSO (without chemistry).
98 μl liquid YPD was added to 2 μl diluted stock of DMSO per well and mixed thoroughly. After mixing, 100 μl of the diluted yeast solution was added to bring the final yeast concentration to 1×10^4 cells/ml or 2000 cells per well. An initial spectrophotometric reading at OD600 was conducted on the entire plate and served as the 0 hour time point used to subtract any background. […] […] […] All experiments were conducted in triplicate. Averages were reported along with standard deviation calculation to generate error bars. Each plate contained its own controls and consisted of inoculated+DMSO, non-inoculated+DMSO, and a titration series of soraphen at 400, 40, and 3.2 nM.

Botrytis cinerea = assay: Fungal growth inhibition assay, Botrytis cinerea; format: cell-based; conditions: 48 hours, read-out: B. cinerea % growth inhibition at 48 hours
Excerpt: (§1) Spores were isolated from previously sub-cultured plates of Botrytis cinerea, Phytophthora capsici, Fusarium moniliforme, Fusarium viguliforme, Collectotrichum graminicola, and Diplodia maydis. All spores were filtered and collected in a sterile glass bowl to isolate the spores from the mycelia. The isolation and sub-culture plate condition for each pathogen is described below.
Spore isolation for B. cinerea: A 2-3 week old V8 (17%)+CaCO3 (3 g/L)+20 g agar plate was removed from room temperature and the mycelia were treated with 5-10 ml of filter sterilized Triton X 100 (.05%). The mycelia were scraped to re-suspend the spores. The spores were then collected in a sterile filter bowl containing a fluted piece of filter paper and poured into a conical tube.
(§2) After spore isolation, pathogen spores were counted on a hemocytometer to calculate the spores/ml. In 17% V8 liquid media containing 3 g/L CaCO3, isolated spores were diluted to individual concentrations based on the growth curves at 48 hours of each pathogen. The spore concentrations for each pathogen were as follows: B. cinerea—10,000 sp/ml; P. capsici—300 sp/ml; F. monliforme—500 sp/ml; F. virguliforme—500 sp/ml; C. graminicola—3,000 sp/ml; and D. maydis—3,000 sp/ml.
(§3) Chemistry stocks were dissolved in DMSO at 2.5 mg/ml. Chemistry was diluted in a 96-well stock plate in five-fold dilutions to obtain a final concentration of 50, 10, and 2 ppm in vitro. The final concentration of the positive control after the five-fold dilutions was as follows: soraphen—0.5, 0.1, and 0.02 ppm. Negative controls on each plate included 2% DMSO, water containing spores and media, and a blank for background subtraction.
(§4) In a 96-well plate the spore solution, chemistries, and controls were combined to make the final solution concentrations mentioned above. Upon addition of the chemistry, an OD600 reading was done to assess chemical precipitation. The 96-well plates were incubated in plastic tubs containing wet paper towels under the following conditions, 25° C. in the dark for P. capsici and B. cinerea or 26° C. with light/dark cycle for C. graminicola, D. maydis, F. virguliforme, F. monliforme. Plate readings were repeated at 24 and 48 hrs. Visual ratings were performed at 24 and 48 hrs to check for precipitation and confirm efficacy. Visual and OD600 ratings of the chemistry at 48 hours were compared to the 2% DMSO control to determine the percent of pathogen growth inhibition.

Phytophthora capsici = assay: Fungal growth inhibition assay, Phytophthora capsici; format: cell-based; conditions: 48 hours, read-out: P. capsici % growth inhibition at 48 hours
Excerpt: as §1
Spore isolation for P. capsici: Three to five days prior to the assay a 2-3 week old V8 (17%)+CaCO3 (3 g/L)+20 g agar plate was removed from a dark 25° C. incubator and cut up into small chunks. One plate was separated into two deep well plates and rinsed with sterile distilled water three times. The cut up pieces were incubated under light in a sterile filter hood with 25 ml of sterile distilled water. On the day of the assay the water was removed and 5-7 ml of fresh sterile distilled water was added. One plate was incubated at 4° C. for 45-60 minutes and then placed at room temperature for about 45-60 minutes. The spores were collected in a sterile filter bowl containing a fluted piece of filter paper. The spores were vortexed in a conical tube for 30-60 seconds to remove the flagella of the zoospores after isolation.
as §2, §3, §4

[2] = system: Collectotrichum graminicola; assay: Fungal growth inhibition assay, Collectotrichum graminicola; format: cell-based; conditions: Colletotrichum graminicola, 48 hours, read-out: C. graminicola % growth inhibition at 48 hours
Experimental: as §1
Spore isolation for C. graminicola: A 1-2 week old oatmeal agar (pre-mix) plate was removed from 26° C. incubator with a light/dark 12 hour cycle and the mycelia were treated with 10-15 ml of filter sterilized distilled water. The mycelia were scraped to re-suspend the spores. The spores were then collected in a sterile filter bowl containing a piece of sterile cheesecloth and poured into a conical tube.
as §2, §3, §4

Diplodia maydis = assay: Fungal growth inhibition assay, Diplodia maydis; format: cell-based; conditions: 48 hours, read-out: D. maydis % growth inhibition at 48 hours
Experimental: as §1
Spore isolation for D. maydis: A 3-4 week old PDA (pre-mix) plate was removed from 26° C. incubator with a light/dark 12 hour cycle and the mycelia were treated with 6-7 ml of sterile distilled water, scraped into a sterile petri dish, and smashed to open the pycnidia. The spores were then collected in a sterile filter bowl containing a fluted piece of filter paper and poured into a conical tube.
as §2, §3, §4

Fusarium virguliforme = assay: Fungal growth inhibition assay, Fusarium virguliforme; format: cell-based; conditions: 48 hours, read-out: F. virguliforme % growth inhibition at 48 hours
Experimental: as §1
Spore isolation for F. virguliforme: A 2-3 week old PDA (pre-mix) plate containing cefotaxime (100 mg/L) and kanamycin (50 mg/L) was removed from 26° C. incubator with a light/dark 12 hour cycle and the mycelia were treated with 5-10 ml of filter sterilized distilled water. The mycelia were scraped to re-suspend the spores. The spores were then collected in a sterile filter bowl containing a fluted piece of filter paper and poured into a conical tube.
as §2, §3, §4

[3] = Table 1B, racemate vs single enantiomers, read-out: ACCase Inhibitory Activity of Racemic Mixtures and Single Enantiomers IC50
[4] = Table 1A, values marked a are a result of two or more experiments, read-out: ACCase Inhibitory Activity IC50

Chain of Ustilago maydis acetyl CoA carboxylase (ACCase) (A0A0D1DYD5 1-2185): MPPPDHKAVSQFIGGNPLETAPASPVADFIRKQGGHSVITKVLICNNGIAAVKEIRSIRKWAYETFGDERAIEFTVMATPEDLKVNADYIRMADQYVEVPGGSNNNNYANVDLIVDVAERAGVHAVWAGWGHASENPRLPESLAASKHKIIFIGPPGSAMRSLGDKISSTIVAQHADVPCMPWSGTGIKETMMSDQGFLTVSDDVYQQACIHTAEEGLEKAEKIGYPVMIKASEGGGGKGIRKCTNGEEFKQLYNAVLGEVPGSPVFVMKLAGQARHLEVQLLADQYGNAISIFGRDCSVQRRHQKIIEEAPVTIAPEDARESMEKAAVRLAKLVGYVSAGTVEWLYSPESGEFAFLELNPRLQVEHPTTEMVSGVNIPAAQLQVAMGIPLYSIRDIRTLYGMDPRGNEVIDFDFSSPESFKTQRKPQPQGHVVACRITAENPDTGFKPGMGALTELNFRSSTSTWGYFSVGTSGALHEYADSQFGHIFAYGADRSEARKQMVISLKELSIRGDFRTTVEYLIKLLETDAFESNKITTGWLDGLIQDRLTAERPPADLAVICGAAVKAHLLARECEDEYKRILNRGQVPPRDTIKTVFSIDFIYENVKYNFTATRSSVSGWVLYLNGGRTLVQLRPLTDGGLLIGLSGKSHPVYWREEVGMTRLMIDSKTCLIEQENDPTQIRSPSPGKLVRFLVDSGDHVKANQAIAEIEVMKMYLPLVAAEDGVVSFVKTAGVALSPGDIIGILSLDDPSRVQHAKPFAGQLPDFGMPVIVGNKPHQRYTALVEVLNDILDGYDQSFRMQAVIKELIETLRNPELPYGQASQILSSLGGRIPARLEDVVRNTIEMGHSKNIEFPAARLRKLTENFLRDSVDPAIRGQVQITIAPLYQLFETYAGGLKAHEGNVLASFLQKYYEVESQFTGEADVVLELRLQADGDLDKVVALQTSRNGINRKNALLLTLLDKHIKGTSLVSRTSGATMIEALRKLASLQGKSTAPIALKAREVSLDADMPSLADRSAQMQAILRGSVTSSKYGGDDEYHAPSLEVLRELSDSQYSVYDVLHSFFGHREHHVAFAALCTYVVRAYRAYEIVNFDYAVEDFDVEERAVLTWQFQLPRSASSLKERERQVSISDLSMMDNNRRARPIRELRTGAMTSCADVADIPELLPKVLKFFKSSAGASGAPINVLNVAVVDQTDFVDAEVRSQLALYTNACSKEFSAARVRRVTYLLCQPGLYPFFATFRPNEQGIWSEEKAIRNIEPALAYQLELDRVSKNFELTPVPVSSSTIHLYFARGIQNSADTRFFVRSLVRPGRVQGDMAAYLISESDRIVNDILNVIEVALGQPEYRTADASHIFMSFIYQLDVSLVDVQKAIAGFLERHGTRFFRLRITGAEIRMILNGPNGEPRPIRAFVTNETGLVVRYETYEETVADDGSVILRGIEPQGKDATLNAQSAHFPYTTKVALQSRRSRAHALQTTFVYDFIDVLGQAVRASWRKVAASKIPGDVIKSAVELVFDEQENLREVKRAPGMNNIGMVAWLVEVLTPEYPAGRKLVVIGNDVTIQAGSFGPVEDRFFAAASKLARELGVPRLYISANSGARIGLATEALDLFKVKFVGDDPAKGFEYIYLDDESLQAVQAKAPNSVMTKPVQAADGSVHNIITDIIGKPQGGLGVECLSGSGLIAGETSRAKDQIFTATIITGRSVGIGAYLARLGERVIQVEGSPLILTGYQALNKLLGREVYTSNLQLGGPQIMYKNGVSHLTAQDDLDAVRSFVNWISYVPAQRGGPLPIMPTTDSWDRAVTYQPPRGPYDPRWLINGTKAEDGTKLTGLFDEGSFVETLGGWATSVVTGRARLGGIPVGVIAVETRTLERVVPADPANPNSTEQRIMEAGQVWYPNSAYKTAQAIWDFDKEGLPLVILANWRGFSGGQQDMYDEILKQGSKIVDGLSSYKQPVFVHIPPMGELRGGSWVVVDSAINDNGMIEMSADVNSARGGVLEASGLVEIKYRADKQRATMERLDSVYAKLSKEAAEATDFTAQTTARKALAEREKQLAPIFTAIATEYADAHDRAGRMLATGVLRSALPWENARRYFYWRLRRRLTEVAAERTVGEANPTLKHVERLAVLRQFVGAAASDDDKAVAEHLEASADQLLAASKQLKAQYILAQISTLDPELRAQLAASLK

Compound	inhibition at 3.7 µM (Saccharomyces cerevisiae) [%]	inhibition at 11.1 µM (Saccharomyces cerevisiae) [%]	inhibition at 33.3 µM (Saccharomyces cerevisiae) [%]	inhibition at 100 µM (Saccharomyces cerevisiae) [%]	pIC50 [1, 4]	inhibition at 2 ppm (Botrytis cinerea) [%]	inhibition at 10 ppm (Botrytis cinerea) [%]	inhibition at 2 ppm [2] [%]	inhibition at 10 ppm [2] [%]	inhibition at 50 ppm [2] [%]	further results
N#Cc1c(C(F)(F)F)cc(-c2cccs2)nc1SC(C(=O)O)c1ccccc1 (racemic) [Formula Ia-ii, 2-((3-cyano-6-(thiophen-2-yl)-4-(trifluoromethyl)pyridin-2-yl)thio)-2-phenylacetic acid]	7	0	12	51	–	–	–	–	–	–	pIC50 [1, 3]: 5.69
N#Cc1c(-c2ccccc2)cc(-c2ccccc2)nc1SC(C(=O)O)c1ccccc1 (stereo not shown) [Formula Ia-xii, 2-((3-cyano-4,6-diphenylpyridin-2-yl)thio)-2-phenylacetic acid]	–	–	–	–	6.58	0	6	6	35	80	inhibition at 50 ppm (Botrytis cinerea): 19%; inhibition at 2 ppm (Phytophthora capsici; 2 ppm): 16%; inhibition at 10 ppm (Phytophthora capsici; 10 ppm): 36%; inhibition at 50 ppm (Phytophthora capsici; 50 ppm): 22%; inhibition at 2 ppm (Diplodia maydis): 42%; inhibition at 10 ppm (Diplodia maydis): 59%; inhibition at 50 ppm (Diplodia maydis): 86%
COc1ccc(-c2cc(-c3ccc[s+]3[O-])nc(OC(C(=O)O)c3ccccc3)c2C#N)cc1 (stereo not shown) [Formula Ia-xxviii, 2-((3-cyano-4-(4-methoxyphenyl)-6-(1-oxidothiophen-2-yl)pyridin-2-yl)oxy)-2-phenylacetic acid]	–	–	–	–	6.71	14	27	–	–	–	–
N#Cc1c(C(F)(F)F)cc(-c2ccc(Br)cc2)nc1SC(C(=O)O)c1ccccc1 (stereo not shown) [Formula Ia-x, 2-((6-(4-bromophenyl)-3-cyano-4-(trifluoromethyl)pyridin-2-yl)thio)-2-phenylacetic acid]	12	13	46	99	5.71	0	12	–	–	–	inhibition at 50 ppm (Botrytis cinerea): 25%
COc1ccc(-c2cc(C(F)(F)F)c(C#N)c(SC(C(=O)O)c3ccccc3)n2)c(OC)c1 (stereo not shown) [Formula Ia-viii, 2-((3-cyano-6-(2,4-dimethoxyphenyl)-4-(trifluoromethyl)pyridin-2-yl)thio)-2-phenylacetic acid]	6	23	62	100	5.76	–	–	–	–	–	–
COc1ccc(-c2cc(-c3cccs3)nc(SC(C(=O)O)c3ccccc3)c2C#N)cc1 (racemic) [Formula Ia-xiv, 2-((3-cyano-4-(4-methoxyphenyl)-6-(thiophen-2-yl)pyridin-2-yl)thio)-2-phenylacetic acid]	–	–	–	–	–	14	8	6	32	79	pIC50 [1, 3]: 7.04 and 6.85
CCc1nc(SC(C(=O)O)c2ccccc2)c(C#N)c2c1CCCC2 (stereo not shown) [Formula Ia-xv, 2-((4-cyano-1-ethyl-5,6,7,8-tetrahydroisoquinolin-3-yl)thio)-2-phenylacetic acid]	–	–	–	–	4.99	–	–	–	–	–	inhibition at 2 ppm (Fusarium virguliforme): 10%; inhibition at 10 ppm (Fusarium virguliforme): 48%
N#Cc1c(-c2cccs2)cc(-c2cccs2)nc1SC(C(=O)O)c1ccccc1 (racemic) [Formula Ia-iii, 2-((3-cyano-4,6-di(thiophen-2-yl)pyridin-2-yl)thio)-2-phenylacetic acid]	–	–	–	–	–	–	–	27	98	91	inhibition at 2 ppm (Fusarium virguliforme): 2%; inhibition at 10 ppm (Fusarium virguliforme): 84%; inhibition at 50 ppm (Fusarium virguliforme; 50 ppm): 90%; inhibition at 2 ppm (Diplodia maydis): 0%; inhibition at 10 ppm (Diplodia maydis): 87%; inhibition at 50 ppm (Diplodia maydis): 82%
